Test: Concentration for hnps- Phospholipase A2 was evaluated using radioligand [3H]arachidonate binding assay in Escherichia coli membranes
Format: cell membranes

IC50: 200 nM
Structure (SMILES): CCCCCCCCOCC(COP(=O)(O)OCCN)OP(=O)(O)CCCCCCC (stereo unspecified)
